From patent publication US9688966B2, “Compositions comprising cellobiose dehydrogenase from Pycnoporus cinnabarinus and their use for the degradation of lignocellulosic biomass” (INSTITUT NATIONAL DE LA RECHERCHE AGRONOMIQUE, priority 2011, dated 2017) come the findings set out here.

The target in the test is Pycnoporus cinnabarinus ss3 cellobiose dehydrogenase, recombinant (rCDH, C-terminal (His)6 tag, expressed in Pichia pastoris; GenBank HQ825322) (Trametes cinnabarina, UniProt F1DFN2). As to the kind of experiment: Kinetic parameters of purified rCDH for electron acceptors (cellobiose oxidation, 30° C., pH 4.5). It is filed as biochemical. Here is the method:
To measure enzyme activities in the P. cinnabarinus culture supernatant, each aliquot was centrifuged for 5 min at 3500 rpm and filtered through a 0.45 μm membrane (MILLIPORE, Bedford, Mass., USA). CDH activities were determined by monitoring the reduction of 0.2 mM 2,6-dichlorophenol indophenol (DCPIP) in 100 mM sodium acetate buffer (pH 5) containing 2 mM cellobiose and 4 mM of sodium fluoride (sodium fluoride was used as a laccase inhibitor). The decrease in absorption at 520 nm (ε=6800 M^−1·cm^−1) was monitored at 30° C. for 1 min. Alternatively, CDH activity was determined by monitoring the reduction of 50 μM cytochrome c (cyt c) in 100 mM sodium-acetate buffer (pH 5) containing 2 mM cellobiose. The decrease in absorption at 550 nm (ε=33,700 M^−1·cm^−1) was monitored at 30° C. for 1 min. Glucose oxidase was measured by using the D-gluconic acid/D-glucono-δ-lactone assay (MEGAZYME). Laccase activity was determined quantitatively by monitoring the oxidation of 5 mM ABTS (2,2′-azino-bis(3-ethylbenzthiazoline-6-sulfonic acid)) at 420 nm (extinction coefficient […] cm.^−1) in the presence of 50 mM NaK tartrate, pH 4.0. Lignin peroxidase activity was determined spectrophotometrically at 30° C. by the method of Tien and Kirk (1988, Methods Enzymol., vol. 161, pp: 238-249). Manganese peroxidase activity was determined spectrophotometrically at 30° C. by the method of Paszczynski et al. (1985, FEMS Microbiol. Lett. 29:37-41) using H2O2 and vanillylacetone as substrate. Enzyme activity was expressed in international units (IU). One unit of activity is defined as the quantity of enzyme that transforms 1 μmol of substrate in one minute.
The kinetic parameters (Vmax and Km) were determined for cellobiose oxidation measured at 30° C. in 50 mM citrate phosphate buffer pH 4.5 using DCPIP or cytochrome c. The concentration of cellobiose ranged from 10 to 700 μM with both electron acceptors (DCPIP and cytochrome c). Triplicates were run to ensure reliable kinetic parameter determination.
Graphpad prism v.4 (Graphpad Software) was used for the nonlinear regression calculation and kinetic parameter determination.

The mark [1] stands for this setting: electron acceptor DCPIP, cellobiose as electron donor, 30° C., pH 4.5, apparent.

By kcat is commonly meant the maximal rate divided by the concentration of active sites. For orientation: kcat/KM means the turnover number divided by the Michaelis constant.

Chain of Pycnoporus cinnabarinus ss3 cellobiose dehydrogenase, recombinant (rCDH, C-terminal (His)6 tag, expressed in Pichia pastoris; GenBank HQ825322) (F1DFN2 1-750): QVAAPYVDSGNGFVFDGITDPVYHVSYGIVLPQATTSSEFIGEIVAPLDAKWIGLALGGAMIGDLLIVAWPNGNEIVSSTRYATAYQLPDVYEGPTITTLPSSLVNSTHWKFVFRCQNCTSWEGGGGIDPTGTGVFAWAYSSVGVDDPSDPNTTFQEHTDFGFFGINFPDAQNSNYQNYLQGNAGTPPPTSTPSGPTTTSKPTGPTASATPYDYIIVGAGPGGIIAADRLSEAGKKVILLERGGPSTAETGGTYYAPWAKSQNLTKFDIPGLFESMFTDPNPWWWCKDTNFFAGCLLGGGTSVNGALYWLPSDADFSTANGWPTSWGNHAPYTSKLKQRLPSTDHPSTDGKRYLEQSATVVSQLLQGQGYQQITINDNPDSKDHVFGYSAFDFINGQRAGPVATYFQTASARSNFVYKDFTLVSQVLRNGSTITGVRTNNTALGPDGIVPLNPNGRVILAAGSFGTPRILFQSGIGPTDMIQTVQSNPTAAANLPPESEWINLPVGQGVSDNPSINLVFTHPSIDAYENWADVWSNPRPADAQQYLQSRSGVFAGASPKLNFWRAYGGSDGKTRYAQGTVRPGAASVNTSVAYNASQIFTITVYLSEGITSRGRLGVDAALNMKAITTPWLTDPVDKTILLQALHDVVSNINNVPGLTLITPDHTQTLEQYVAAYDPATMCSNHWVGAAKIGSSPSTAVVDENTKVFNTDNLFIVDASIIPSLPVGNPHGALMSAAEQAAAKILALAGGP

With `O=C1C(Cl)=CC(=Nc2ccc(O)cc2)C=C1Cl` [DCPIP, 2,6-dichlorophenol indophenol], under “DCPIP, on cellobiose oxidation”, the Vmax came out at 22.2 U·mg^−1. In addition, under setting [1], the Vmax worked out at 22.2 µmol/min/mg, the kcat was 40.8 s⁻¹ and the kcat/KM is 1.148e+06 M⁻¹ s⁻¹.
